According to ChEMBL document CHEMBL3616410, “Linked pyridinyl-thiadiazoles: Design and synthesis as potential candidate for treatment of XDR and MDR tuberculosis” (Eur J Med Chem, 2015):
In brackets after ≈: the same amount, converted by molar mass.

Legend:
[1] = system: Mycobacterium tuberculosis; experiment: Antimycobacterial activity against Mycobacterium tuberculosis H37Rv ATCC 27294 after 5 days by spectrophotometry; assay type: functional; conditions: H37Rv ATCC 27294, 120 h
[2] = Cytotoxicity against human HepG2 cells after 3 days; assay type: cell-based
[3] = Cytotoxicity against hamster BHK21 cells after 3 days; assay type: cell-based, Mesocricetus auratus, BHK-21
[4] = system: Mycobacterium tuberculosis; experiment: Bactericidal activity against Mycobacterium tuberculosis H37Rv ATCC 27294 after 5 days by spectrophotometry; assay type: functional
[5] = system: Mycobacterium tuberculosis; experiment: Antimycobacterial activity against Mycobacterium tuberculosis TN675 after 5 days by spectrophotometry; assay type: functional; conditions: TN675, 120 h
[6] = system: Mycobacterium tuberculosis; experiment: Antimycobacterial activity against Mycobacterium tuberculosis TN913 after 5 days by spectrophotometry; assay type: functional; conditions: TN913, 120 h
[7] = system: Mycobacterium tuberculosis; experiment: Antimycobacterial activity against Mycobacterium tuberculosis TN994 after 5 days by spectrophotometry; assay type: functional; conditions: TN994, 120 h
[8] = system: Mycobacterium tuberculosis; experiment: Antimycobacterial activity against Mycobacterium tuberculosis TN1008 after 5 days by spectrophotometry; assay type: functional; conditions: TN1008, 120 h
[9] = system: Mycobacterium tuberculosis; experiment: Antimycobacterial activity against Mycobacterium tuberculosis TN1037 after 5 days by spectrophotometry; assay type: functional; conditions: TN1037, 120 h
[10] = system: Mycobacterium tuberculosis; experiment: Antimycobacterial activity against Mycobacterium tuberculosis TN1040 after 5 days by spectrophotometry; assay type: functional; conditions: TN1040, 120 h
[11] = system: Mycobacterium tuberculosis; experiment: Antimycobacterial activity against Mycobacterium tuberculosis TN1051 after 5 days by spectrophotometry; assay type: functional; conditions: TN1051, 120 h
[12] = system: Mycobacterium tuberculosis; experiment: Antimycobacterial activity against Mycobacterium tuberculosis TN1082 after 5 days by spectrophotometry; assay type: functional; conditions: TN1082, 120 h
[13] = system: Mycobacterium tuberculosis; experiment: Antimycobacterial activity against Mycobacterium tuberculosis TN2351 after 5 days by spectrophotometry; assay type: functional; conditions: TN2351, 120 h
[14] = system: Mycobacterium tuberculosis; experiment: Antimycobacterial activity against Mycobacterium tuberculosis TN2524 after 5 days by spectrophotometry; assay type: functional; conditions: TN2524, 120 h
[15] = system: Mycobacterium tuberculosis; experiment: Antimycobacterial activity against Mycobacterium tuberculosis TN3183 after 5 days by spectrophotometry; assay type: functional; conditions: TN3183, 120 h
[16] = system: Mycobacterium tuberculosis; experiment: Antimycobacterial activity against Mycobacterium tuberculosis TN3979 after 5 days by spectrophotometry; assay type: functional; conditions: TN3979, 120 h
[17] = system: Mycobacterium tuberculosis; experiment: Antimycobacterial activity against Mycobacterium tuberculosis TN4259 after 5 days by spectrophotometry; assay type: functional; conditions: TN4259, 120 h
[18] = system: Mycobacterium tuberculosis; experiment: Antimycobacterial activity against Mycobacterium tuberculosis AH9584 after 5 days by spectrophotometry; assay type: functional; conditions: AH9584, 120 h
[19] = system: Mycobacterium tuberculosis; experiment: Antimycobacterial activity against Mycobacterium tuberculosis BE11677 after 5 days by spectrophotometry; assay type: functional; conditions: BE11677, 120 h
[20] = system: Mycobacterium tuberculosis; experiment: Antimycobacterial activity against Mycobacterium tuberculosis E8133 after 5 days by spectrophotometry; assay type: functional; conditions: E8133, 120 h
[21] = system: Mycobacterium tuberculosis; experiment: Antimycobacterial activity against Mycobacterium tuberculosis W4 after 5 days by spectrophotometry; assay type: functional; conditions: W4, 120 h

SMILES | MIC50 [1] | CC50 at 72 h [2] | CC50 at 72 h [3] | MBC90 [4] | also measured
O=C(CSc1nnc(-c2ccncc2)s1)Nc1ccc(Cl)cc1 | 6.81 µM (≈ 2.47 µg/mL) | > 50 µM | > 50 µM | – | –
O=C(CSc1nnc(-c2ccncc2)s1)NCc1ccccc1 | 0.19 µM (≈ 0.0651 µg/mL) | 17.7 µM | 11.3 µM | 1.25 µM (≈ 0.428 µg/mL) | –
CC(Sc1nnc(-c2ccncc2)s1)C(=O)Nc1ccc(Cl)cc1 (configuration not stated) | 0.12 µM (≈ 0.0452 µg/mL) | > 50 µM | > 50 µM | 1.25 µM (≈ 0.471 µg/mL) | –
CC(Sc1nnc(-c2ccncc2)s1)C(=O)NCc1ccccc1 (configuration not stated) | 1.15 µM (≈ 0.41 µg/mL) | > 50 µM | > 50 µM | 5 µM (≈ 1.78 µg/mL) | –
O=C(CSc1nnc(-c2ccncc2)s1)Nc1ccc(Cl)cc1Cl | > 20 µM | – | – | – | –
CC(CSc1nnc(-c2ccncc2)s1)C(=O)NCc1ccc(Cl)cc1 (configuration not stated) | 1.68 µM (≈ 0.68 µg/mL) | – | – | – | –
CC(Sc1nnc(-c2ccncc2)s1)C(=O)NCc1ccc(Cl)cc1 (configuration not stated) | > 20 µM | – | – | – | –
O=C(CCSc1nnc(-c2ccncc2)s1)Nc1ccc(Cl)cc1 | 0.07 µM (≈ 0.0264 µg/mL) | 7.26 µM | 8.21 µM | 1.25 µM (≈ 0.471 µg/mL) | MIC [1]: 0.015 µg/mL (≈ 0.0398 µM); MIC [5]: 0.013 µg/mL (≈ 0.0345 µM); MIC [6]: 0.013 µg/mL (≈ 0.0345 µM); MIC [7]: 0.03 µg/mL (≈ 0.0796 µM); MIC [8]: 0.06 µg/mL (≈ 0.159 µM); MIC [9]: 0.06 µg/mL (≈ 0.159 µM); MIC [10]: 0.03 µg/mL (≈ 0.0796 µM); MIC [11]: 0.06 µg/mL (≈ 0.159 µM); MIC [12]: 0.06 µg/mL (≈ 0.159 µM); MIC [13]: 0.25 µg/mL (≈ 0.663 µM); MIC [14]: 0.25 µg/mL (≈ 0.663 µM); MIC [15]: 0.06 µg/mL (≈ 0.159 µM); MIC [16]: 0.13 µg/mL (≈ 0.345 µM); MIC [17]: 0.06 µg/mL (≈ 0.159 µM); MIC [18]: 0.25 µg/mL (≈ 0.663 µM); MIC [19]: 0.25 µg/mL (≈ 0.663 µM); MIC [20]: 0.13 µg/mL (≈ 0.345 µM); MIC [21]: 0.06 µg/mL (≈ 0.159 µM)
O=C(CCSc1nnc(-c2ccncc2)s1)Nc1ccccc1Cl | 0.62 µM (≈ 0.234 µg/mL) | > 50 µM | > 50 µM | 2.5 µM (≈ 0.942 µg/mL) | –
CC(CSc1nnc(-c2ccncc2)s1)C(=O)Nc1ccc(Cl)cc1 (configuration not stated) | 0.22 µM (≈ 0.086 µg/mL) | > 50 µM | > 50 µM | 1.25 µM (≈ 0.489 µg/mL) | –
CC(Sc1nnc(-c2ccncc2)s1)C(=O)Nc1ccc(Cl)cc1Cl (configuration not stated) | 2.45 µM (≈ 1.01 µg/mL) | > 50 µM | > 50 µM | 5 µM (≈ 2.06 µg/mL) | –
O=C(CSc1nnc(-c2ccncc2)s1)NCc1ccccc1Cl | 9.67 µM (≈ 3.64 µg/mL) | – | – | – | –
CC(CSc1nnc(-c2ccncc2)s1)C(=O)NCc1ccccc1Cl (configuration not stated) | 1.89 µM (≈ 0.765 µg/mL) | > 50 µM | > 50 µM | 5 µM (≈ 2.02 µg/mL) | –
CC(CSc1nnc(-c2ccncc2)s1)C(=O)Nc1ccccc1Cl (configuration not stated) | 2.05 µM (≈ 0.801 µg/mL) | > 50 µM | > 50 µM | 5 µM (≈ 1.95 µg/mL) | –
O=C(CSc1nnc(-c2ccncc2)s1)Nc1ccccc1Cl | 8.52 µM (≈ 3.09 µg/mL) | > 50 µM | > 50 µM | – | –
CC(CSc1nnc(-c2ccncc2)s1)C(=O)Nc1ccccc1 (configuration not stated) | 2.26 µM (≈ 0.806 µg/mL) | > 50 µM | > 50 µM | 5 µM (≈ 1.78 µg/mL) | –
O=C(CSc1nnc(-c2ccncc2)s1)Nc1ccccc1 | 0.18 µM (≈ 0.0591 µg/mL) | 15.2 µM | 16.2 µM | 1.25 µM (≈ 0.411 µg/mL) | –
